Measured values taken from patent US20120122860A1, “SOLID FORMS OF SULFONAMIDES AND AMINO ACIDS” (Plexxikon, Inc., priority 2009, published 2012).

What was measured:
Kdr = Kdr (Homo sapiens, UniProt P35968); test: Kinase activity assay, Kdr
Fms = Fms (Homo sapiens, UniProt P07333); test: Kinase activity assay, Fms
Kit = Kit (Homo sapiens, UniProt P10721); test: Kinase activity assay, Kit
C-Raf = C-Raf (Homo sapiens, UniProt P04049); test: Kinase activity assay, C-Raf
B-Raf V600E = B-Raf V600E (Homo sapiens, UniProt P15056, V600E); test: Kinase activity assay, B-Raf V600E; format: biochemical; conditions: read-out: activity toward kinase B-Raf V600E, IC50
Sequence of B-Raf V600E (P15056 whole entry V600E): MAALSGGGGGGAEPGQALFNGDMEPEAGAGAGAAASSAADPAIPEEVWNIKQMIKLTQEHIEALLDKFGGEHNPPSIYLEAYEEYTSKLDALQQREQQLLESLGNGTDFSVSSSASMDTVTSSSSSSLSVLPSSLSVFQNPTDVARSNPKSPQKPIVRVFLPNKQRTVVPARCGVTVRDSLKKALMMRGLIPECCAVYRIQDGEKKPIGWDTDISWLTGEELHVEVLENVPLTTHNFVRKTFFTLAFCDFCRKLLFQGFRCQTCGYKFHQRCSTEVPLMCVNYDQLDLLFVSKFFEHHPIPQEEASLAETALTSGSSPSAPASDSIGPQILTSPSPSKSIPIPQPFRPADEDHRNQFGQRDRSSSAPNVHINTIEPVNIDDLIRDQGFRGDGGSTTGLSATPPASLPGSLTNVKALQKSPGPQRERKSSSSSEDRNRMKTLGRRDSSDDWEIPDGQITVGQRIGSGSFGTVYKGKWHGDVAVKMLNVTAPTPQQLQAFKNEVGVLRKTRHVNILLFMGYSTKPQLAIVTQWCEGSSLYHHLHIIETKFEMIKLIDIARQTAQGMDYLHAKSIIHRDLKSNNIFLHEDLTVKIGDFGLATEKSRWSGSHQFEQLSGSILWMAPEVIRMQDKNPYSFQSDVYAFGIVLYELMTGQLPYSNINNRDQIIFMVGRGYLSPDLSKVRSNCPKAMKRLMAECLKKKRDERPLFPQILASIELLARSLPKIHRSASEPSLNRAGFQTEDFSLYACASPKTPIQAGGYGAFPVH

Src = Src (Homo sapiens, UniProt P12931); test: Kinase activity assay, Src
Sequence of Src (P12931 whole entry): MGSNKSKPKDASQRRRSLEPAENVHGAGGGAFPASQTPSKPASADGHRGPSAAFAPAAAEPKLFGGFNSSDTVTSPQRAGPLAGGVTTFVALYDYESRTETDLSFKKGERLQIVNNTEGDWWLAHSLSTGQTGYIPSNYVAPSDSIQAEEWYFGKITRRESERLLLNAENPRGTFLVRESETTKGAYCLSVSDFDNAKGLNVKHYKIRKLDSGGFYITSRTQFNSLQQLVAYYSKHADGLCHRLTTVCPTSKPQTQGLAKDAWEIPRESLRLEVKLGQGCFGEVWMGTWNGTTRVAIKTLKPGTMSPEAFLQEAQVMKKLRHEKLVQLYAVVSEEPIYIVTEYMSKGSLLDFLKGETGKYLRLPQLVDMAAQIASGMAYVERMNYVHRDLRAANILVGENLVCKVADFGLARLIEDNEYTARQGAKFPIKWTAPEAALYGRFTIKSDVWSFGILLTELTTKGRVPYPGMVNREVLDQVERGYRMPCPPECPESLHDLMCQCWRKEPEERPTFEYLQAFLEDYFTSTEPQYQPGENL

B-Raf = B-Raf (Homo sapiens, UniProt P15056); test: Kinase activity assay, B-Raf; format: biochemical; conditions: read-out: activity toward kinase B-Raf, IC50
Sequence of B-Raf (P15056 whole entry): as the sequence (P15056 whole entry V600E) above, with E600V counted along it

Measured: IC50

Sequence of Kit (P10721 26-976): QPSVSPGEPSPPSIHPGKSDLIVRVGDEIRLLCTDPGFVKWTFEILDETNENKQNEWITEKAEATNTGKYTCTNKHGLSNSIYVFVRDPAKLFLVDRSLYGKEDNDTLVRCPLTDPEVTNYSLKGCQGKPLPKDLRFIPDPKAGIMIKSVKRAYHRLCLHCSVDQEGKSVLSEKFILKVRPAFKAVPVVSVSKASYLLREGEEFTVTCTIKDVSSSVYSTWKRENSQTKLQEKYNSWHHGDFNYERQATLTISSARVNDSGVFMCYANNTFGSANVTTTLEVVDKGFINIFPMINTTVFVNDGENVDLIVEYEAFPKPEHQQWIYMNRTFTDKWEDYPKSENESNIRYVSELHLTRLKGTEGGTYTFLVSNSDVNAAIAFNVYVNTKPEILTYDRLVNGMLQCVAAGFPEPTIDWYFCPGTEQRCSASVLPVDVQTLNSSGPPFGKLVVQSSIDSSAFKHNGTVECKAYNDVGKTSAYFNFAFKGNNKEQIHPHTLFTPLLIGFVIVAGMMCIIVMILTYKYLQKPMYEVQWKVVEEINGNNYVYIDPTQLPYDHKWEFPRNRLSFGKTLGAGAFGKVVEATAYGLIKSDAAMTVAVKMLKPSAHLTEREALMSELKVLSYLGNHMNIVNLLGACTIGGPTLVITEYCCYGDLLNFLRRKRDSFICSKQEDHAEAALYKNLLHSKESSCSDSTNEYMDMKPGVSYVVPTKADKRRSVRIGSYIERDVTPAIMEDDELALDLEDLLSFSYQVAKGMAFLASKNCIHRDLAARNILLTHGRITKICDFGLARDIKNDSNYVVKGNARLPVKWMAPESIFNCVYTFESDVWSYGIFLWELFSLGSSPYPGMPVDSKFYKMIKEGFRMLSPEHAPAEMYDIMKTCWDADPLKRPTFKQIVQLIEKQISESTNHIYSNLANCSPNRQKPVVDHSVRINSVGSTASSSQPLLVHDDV
Sequence of Kdr (P35968 20-1356): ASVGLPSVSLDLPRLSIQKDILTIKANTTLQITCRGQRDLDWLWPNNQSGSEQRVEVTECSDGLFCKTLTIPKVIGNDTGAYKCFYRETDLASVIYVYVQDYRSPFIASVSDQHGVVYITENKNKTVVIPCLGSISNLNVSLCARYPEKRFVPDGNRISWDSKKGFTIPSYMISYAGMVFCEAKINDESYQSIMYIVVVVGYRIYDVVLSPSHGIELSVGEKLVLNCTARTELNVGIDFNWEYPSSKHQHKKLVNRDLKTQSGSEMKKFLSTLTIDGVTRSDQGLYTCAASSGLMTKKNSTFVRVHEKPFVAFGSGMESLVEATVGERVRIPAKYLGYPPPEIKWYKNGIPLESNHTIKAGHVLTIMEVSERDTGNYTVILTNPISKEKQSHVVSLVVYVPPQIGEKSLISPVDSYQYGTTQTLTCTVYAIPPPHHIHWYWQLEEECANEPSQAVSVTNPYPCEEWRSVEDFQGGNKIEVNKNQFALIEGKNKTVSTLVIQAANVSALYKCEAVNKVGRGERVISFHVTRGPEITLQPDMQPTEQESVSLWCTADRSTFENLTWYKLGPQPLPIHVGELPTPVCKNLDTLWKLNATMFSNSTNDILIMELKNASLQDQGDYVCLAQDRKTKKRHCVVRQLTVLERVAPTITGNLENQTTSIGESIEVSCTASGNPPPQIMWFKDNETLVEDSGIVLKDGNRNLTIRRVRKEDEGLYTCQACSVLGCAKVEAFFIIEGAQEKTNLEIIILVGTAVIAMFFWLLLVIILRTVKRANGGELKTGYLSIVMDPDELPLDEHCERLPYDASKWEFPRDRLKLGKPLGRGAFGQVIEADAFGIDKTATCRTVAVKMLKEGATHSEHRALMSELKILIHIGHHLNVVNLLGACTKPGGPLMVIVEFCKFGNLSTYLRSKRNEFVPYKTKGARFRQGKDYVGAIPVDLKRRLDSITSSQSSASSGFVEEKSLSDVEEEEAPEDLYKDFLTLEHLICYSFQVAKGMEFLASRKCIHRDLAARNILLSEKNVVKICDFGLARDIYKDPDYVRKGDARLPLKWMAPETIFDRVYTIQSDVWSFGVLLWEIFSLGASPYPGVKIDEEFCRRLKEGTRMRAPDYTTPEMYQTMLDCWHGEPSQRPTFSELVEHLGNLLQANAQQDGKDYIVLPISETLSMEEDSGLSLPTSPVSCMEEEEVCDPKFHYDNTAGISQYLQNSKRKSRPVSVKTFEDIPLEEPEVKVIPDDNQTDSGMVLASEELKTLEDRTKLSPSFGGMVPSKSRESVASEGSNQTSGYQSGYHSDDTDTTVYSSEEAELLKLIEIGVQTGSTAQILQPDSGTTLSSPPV
Sequence of Fms (P07333 20-972): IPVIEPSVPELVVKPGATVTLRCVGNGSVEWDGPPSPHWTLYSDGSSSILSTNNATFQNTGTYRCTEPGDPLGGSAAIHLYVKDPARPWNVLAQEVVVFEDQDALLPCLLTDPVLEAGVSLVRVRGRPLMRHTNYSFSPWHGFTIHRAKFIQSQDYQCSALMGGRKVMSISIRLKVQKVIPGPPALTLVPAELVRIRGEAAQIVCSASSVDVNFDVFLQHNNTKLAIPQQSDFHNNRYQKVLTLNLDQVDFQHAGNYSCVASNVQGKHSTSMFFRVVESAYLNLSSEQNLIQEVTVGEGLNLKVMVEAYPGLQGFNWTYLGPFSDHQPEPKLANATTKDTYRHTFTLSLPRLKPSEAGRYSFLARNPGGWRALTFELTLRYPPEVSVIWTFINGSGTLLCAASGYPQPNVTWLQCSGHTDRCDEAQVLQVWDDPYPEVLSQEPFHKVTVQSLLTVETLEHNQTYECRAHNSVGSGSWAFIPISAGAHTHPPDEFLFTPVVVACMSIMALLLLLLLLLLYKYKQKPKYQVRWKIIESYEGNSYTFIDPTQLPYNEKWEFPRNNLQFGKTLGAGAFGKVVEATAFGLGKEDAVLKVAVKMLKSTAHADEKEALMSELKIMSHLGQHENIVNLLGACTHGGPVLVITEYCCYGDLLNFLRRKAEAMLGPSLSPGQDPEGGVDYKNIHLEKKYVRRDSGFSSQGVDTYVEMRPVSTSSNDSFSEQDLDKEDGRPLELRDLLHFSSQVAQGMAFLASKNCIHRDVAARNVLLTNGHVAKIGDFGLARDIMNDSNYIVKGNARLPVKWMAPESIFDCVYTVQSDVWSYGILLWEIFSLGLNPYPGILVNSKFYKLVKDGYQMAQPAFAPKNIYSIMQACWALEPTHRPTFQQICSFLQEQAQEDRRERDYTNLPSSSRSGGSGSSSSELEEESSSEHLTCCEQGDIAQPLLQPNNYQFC

Cc1oncc1S(=O)(=O)Nc1cccc(C(=O)c2c[nH]c3ncc(C#N)cc23)c1F [P-2088, 5-Methyl-isoxazole-4-sulfonic acid [3-(5-cyano-1H-pyrrolo[2,3-b]pyridine-3-carbonyl)-2-fluoro-phenyl]-amide]
not listed: Src | B-Raf
≤ 10 µM: all other assays above

Cn1cc(-c2cnc3[nH]cc(C(=O)c4cc(NS(=O)(=O)c5ccc(C(F)(F)F)cc5)ccc4F)c3c2)cn1 [P-2104, N-{4-Fluoro-3-[5-(1-methyl-1H-pyrazol-4-yl)-1H-pyrrolo[2,3-b]pyridine-3-carbonyl]-phenyl}-4-trifluoromethyl-benzenesulfonamide]
not listed: C-Raf
≤ 10 µM: all other assays above

O=C(c1cc(NS(=O)(=O)c2ccc(Cl)cc2)ccc1F)c1c[nH]c2ncc(Cl)cc12 [P-2106, 4-Chloro-N-[3-(5-chloro-1H-pyrrolo[2,3-b]pyridine-3-carbonyl)-4-fluoro-phenyl]-benzenesulfonamide]
≤ 10 µM: Kdr | Fms | Kit | B-Raf

O=C(c1cc(NS(=O)(=O)c2cccc(C(F)(F)F)c2)ccc1F)c1c[nH]c2ncc(Cl)cc12 [P-2108, N-[3-(5-Chloro-1H-pyrrolo[2,3-b]pyridine-3-carbonyl)-4-fluoro-phenyl]-3-trifluoromethyl-benzenesulfonamide]
not listed: C-Raf | Src
≤ 10 µM: all other assays above

O=C(c1cc(NS(=O)(=O)c2cccc(OC(F)(F)F)c2)ccc1F)c1c[nH]c2ncc(Cl)cc12 [P-2110, N-[3-(5-Chloro-1H-pyrrolo[2,3-b]pyridine-3-carbonyl)-4-fluoro-phenyl]-3-trifluoromethoxy-benzenesulfonamide]
not listed: C-Raf | Src
≤ 10 µM: all other assays above

O=C(c1cc(NS(=O)(=O)c2ccc(C(F)(F)F)cc2)ccc1F)c1c[nH]c2ncc(Cl)cc12 [P-2112, N-[3-(5-Chloro-1H-pyrrolo[2,3-b]pyridine-3-carbonyl)-4-fluoro-phenyl]-4-trifluoromethyl-benzenesulfonamide]
≤ 10 µM: Fms | Kit | B-Raf

O=C(c1cccc(NS(=O)(=O)c2ccc(OC(F)(F)F)cc2)c1)c1c[nH]c2ncc(Cl)cc12 [P-2123, N-[3-(5-Chloro-1H-pyrrolo[2,3-b]pyridine-3-carbonyl)-phenyl]-4-trifluoromethoxy-benzenesulfonamide]
≤ 10 µM: Fms | Kit | B-Raf

O=C(c1cccc(NS(=O)(=O)c2cccc(F)c2)c1)c1c[nH]c2ncc(Cl)cc12 [P-2127, N-[3-(5-Chloro-1H-pyrrolo[2,3-b]pyridine-3-carbonyl)-phenyl]-3-fluoro-benzenesulfonamide]
not listed: C-Raf | Src
≤ 10 µM: all other assays above

O=C(c1cccc(NS(=O)(=O)c2ccc(Cl)cc2)c1)c1c[nH]c2ncc(Cl)cc12 [P-2128, 4-Chloro-N-[3-(5-chloro-1H-pyrrolo[2,3-b]pyridine-3-carbonyl)-phenyl]-benzenesulfonamide]
≤ 10 µM: Kdr | Fms | Kit | B-Raf

CCCS(=O)(=O)Nc1ccc(F)c(C(=O)c2c[nH]c3ncc(-c4ncc(C)n4C)cc23)c1F [P-2152, Propane-1-sulfonic acid {3-[5-(1,5-dimethyl-1H-imidazol-2-yl)-1H-pyrrolo[2,3-b]pyridine-3-carbonyl]-2,4-difluoro-phenyl}-amide]
not listed: C-Raf | Src
≤ 10 µM: all other assays above

CCCS(=O)(=O)Nc1ccc(F)c(C(=O)c2c[nH]c3ncc(-c4nccn4C)cc23)c1F [P-2153, Propane-1-sulfonic acid {2,4-difluoro-3-[5-(1-methyl-1H-imidazol-2-yl)-1H-pyrrolo[2,3-b]pyridine-3-carbonyl]-phenyl}-amide]
not listed: C-Raf
≤ 10 µM: all other assays above

CCCS(=O)(=O)Nc1ccc(F)c(C(=O)c2c[nH]c3ncc(-c4cccnc4F)cc23)c1F [P-2164, Propane-1-sulfonic acid {2,4-difluoro-3-[5-(2-fluoro-pyridin-3-yl)-1H-pyrrolo[2,3-b]pyridine-3-carbonyl]-phenyl}-amide]
not listed: C-Raf | B-Raf
≤ 10 µM: all other assays above

CCCS(=O)(=O)Nc1ccc(F)c(C(=O)c2c[nH]c3ncc(-c4cccc(NS(C)(=O)=O)c4)cc23)c1F [P-2169, Propane-1-sulfonic acid {2,4-difluoro-3-[5-(3-methanesulfonylamino-phenyl)-1H-pyrrolo[2,3-b]pyridine-3-carbonyl]-phenyl}-amide]
not listed: C-Raf | B-Raf
≤ 10 µM: all other assays above

CCCS(=O)(=O)Nc1ccc(F)c(C(=O)c2c[nH]c3ncc(-c4ccc(C)nc4F)cc23)c1F [P-2172, Propane-1-sulfonic acid {2,4-difluoro-3-[5-(2-fluoro-6-methyl-pyridin-3-yl)-1H-pyrrolo[2,3-b]pyridine-3-carbonyl]-phenyl}-amide]
not listed: C-Raf
≤ 10 µM: all other assays above

CCCS(=O)(=O)Nc1ccc(F)c(C(=O)c2c[nH]c3ncc(-c4ccnn4C)cc23)c1F [P-2175, Propane-1-sulfonic acid {2,4-difluoro-3-[5-(2-methyl-2H-pyrazol-3-yl)-1H-pyrrolo[2,3-b]pyridine-3-carbonyl]-phenyl}-amide]
not listed: C-Raf
≤ 10 µM: all other assays above

CCCS(=O)(=O)Nc1ccc(F)c(C(=O)c2c[nH]c3ncc(-c4ccc(C(=O)NC)nc4)cc23)c1F [P-2180, 5-{3-[2,6-Difluoro-3-(propane-1-sulfonylamino)-benzoyl]-1H-pyrrolo[2,3-b]pyridin-5-yl}-pyridine-2-carboxylic acid methylamide]
not listed: C-Raf
≤ 10 µM: all other assays above

CCCS(=O)(=O)Nc1ccc(F)c(C(=O)c2c[nH]c3ncc(-c4ccc(S(C)(=O)=O)cc4)cc23)c1F [P-2183, Propane-1-sulfonic acid {2,4-difluoro-3-[5-(4-methanesulfonyl-phenyl)-1H-pyrrolo[2,3-b]pyridine-3-carbonyl]-phenyl}-amide]
not listed: C-Raf | Src
≤ 10 µM: all other assays above

CC(C)CS(=O)(=O)Nc1ccc(F)c(C(=O)c2c[nH]c3ncc(Br)cc23)c1F [P-2296, 2-Methyl-propane-1-sulfonic acid [3-(5-bromo-1H-pyrrolo[2,3-b]pyridine-3-carbonyl)-2,4-difluoro-phenyl]-amide]
not listed: C-Raf | B-Raf
≤ 10 µM: all other assays above

CCCS(=O)(=O)Nc1cccc(C(=O)c2c[nH]c3ncc(C(=O)OCC)cc23)c1F [P-2406, 3-[2-Fluoro-3-(propane-1-sulfonylamino)-benzoyl]-1H-pyrrolo[2,3-b]pyridine-5-carboxylic acid ethyl ester]
not listed: C-Raf | Src
≤ 10 µM: all other assays above

CCCCS(=O)(=O)Nc1cccc(C(=O)c2c[nH]c3ncc(Cl)cc23)c1 [P-2450, Butane-1-sulfonic acid [3-(5-chloro-1H-pyrrolo[2,3-b]pyridine-3-carbonyl)-phenyl]-amide]
≤ 10 µM: Kdr | Fms | Kit | B-Raf V600E
